Experiments:
FomD = FomD (Streptomyces fradiae, UniProt D2SNF7); assay: […]-NMR hydrolysis assay; assay type: biochemical; details: 100 μM FomD, 6 mM racemic HPP-CMP
Fom3 = Fom3 (Streptomyces fradiae, UniProt D2SNF5); assay: Mössbauer spectroscopy of […]-labelled enzyme; assay type: binding; details: 4.2 K, 53 mT; binds to the [4Fe-4S] cluster
[1] = substrate: Nc1ccn([C@@H]2O[C@H](COP(=O)(O)OP(=O)(O)CCO)[C@@H](O)[C@H]2O)c(=O)n1; assay: steady-state kinetics, HPP-CMP formation by LC-MS/MS; assay type: biochemical, Streptomyces fradiae; details: 1 μM Fom3, SAM, Ti(III)citrate as reductant, anaerobic

Chain of FomD (D2SNF7 whole entry): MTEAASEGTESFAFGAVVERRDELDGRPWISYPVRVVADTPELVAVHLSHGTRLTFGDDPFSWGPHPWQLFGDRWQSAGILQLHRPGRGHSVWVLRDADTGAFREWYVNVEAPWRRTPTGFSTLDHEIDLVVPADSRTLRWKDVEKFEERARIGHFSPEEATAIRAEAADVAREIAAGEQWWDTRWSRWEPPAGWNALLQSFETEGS

For `CC(O)CP(=O)(O)OP(=O)(O)OC[C@H]1O[C@@H](n2ccc(N)nc2=O)[C@H](O)[C@@H]1O` (stereo partly shown) [HPP-CMP], which 31P-NMR hydrolysis assay (FomD) is on record?
The 31P-NMR hydrolysis assay was “FomD from S. fradiae was overproduced and purified and then used in a reaction”.

For `C[S+](CC[C@H](N)C(=O)O)C[C@H]1O[C@@H](n2cnc3c(N)ncnc32)[C@H](O)[C@@H]1O` (stereo partly shown) [SAM], which “Mössbauer spectroscopy of 57Fe-labelled enzyme” value (Fom3) is on record?
Its value is “Upon incubating as-isolated Fom3 with SAM”.

B1: Fom3 (Streptomyces fradiae) (protein)
chain: MTIGSLGSTEFALHGKPAIRWGDLPQRVGKKASRRYQKVLLLNPSATLFRHDLPRCTYPLGLGYIAAVLEKYDYEVKILDVFAEGYYNAQPVDGDEQFLRYGLSDDDIVKVIKEFAPDVIGISSIFSNQADNVHHLLKLADLVAPEAVTSIGGAHARYFPKACLDDPNLDAVFLGEGEMTFLLWLEHLNGNVREDEVHGIAWRDRDGKIQIKPELPLISSMRPEGPEQGKSSPMLSMAGELDHIPFPAWHHYNMEKYFEIKAYQSPYTVGSRVGQLYTSRGCTAHCTFCTTTHFWGQKLRRRSVDNVVNEVLRLRDEYGIDEFHIQDDNITNDMDHARELFRAFKEVGLPWATPQGTALWRMDEELLDLMAESGAYQVTFAIESGVQRVLKDLIKKPLNLGRTSHLIKYARSLGMHVHGFFIIGMPPMFGNAGESIEEMQASYDYAEESGFSSASFFAASPIVGSELLRECIRQGFVDPEESLYRMTYKQGIINVPGLWDGEEIAELAAKFNRDFNARRDRDYTPQKQWNANQY
How did the Km [1] turn out when B1 was run?
Its Km is 74 µM.

And the kcat [1]?
The kcat was ~0.013 s⁻¹.
